Assay results taken from PubChem BioAssay AID1918944 (Molecular Pharmacology Branch, DTP, NCI, 2023).
pIC50: −log10 of the molar value. Values joined by “and” are separate entries in the source; they are usually repeats but may differ in a detail not shown here. Equal values may be shown once. Values belong to the compound of their own block, whether it stands above or below them.

System: 786-0 complex spheroid viability
Assay: Anticancer human tumor 786-0 cell line growth inhibition;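 further: spheroids exposed to agents for seven days before readout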
Settings: for viability, T/C: stronger effect = lower value
Text: Multicellular complex tumor spheroid response to LSD1 Inhibitor Iadademstat in combination with a variety of drugs and investigational agents in selected tumor cell lines
The current study was undertaken to assess response to LSD1 inhibitors in combination with standard-of-care drugs and investigational agents in solid tumor complex spheroid models as well as in the K-562 leukemia. Complex spheroids include a stromal component modeled by human endothelial cells (HUVEC) and fibroblasts modeled by human mesenchymal stem cells (MSCs). The concentration ranges selected for each drug and investigational agent were based upon clinically achievable concentrations if the clinical Cmax of the agent was known.
Compounds. The drugs and investigational agents used in this study are listed on Table 1. All of the agents used, including staurosporine (NSC755774) and gemcitabine (NSC613327), were obtained from the Developmental Therapeutics Program, NCI. FDA-approved anticancer drugs are available from the NCI at http://dtp.nci.nih.gov/branches/dscb/oncology_drugset_explanation.html. Drugs and investigational agents were >95% pure by proton nuclear magnetic resonance (NMR) and liquid chromatography/mass spectrometry (LC/MS). Stock solutions were prepared at 400x in DMSO, stored at -70 degrees C, and diluted in fresh medium prior to their use. The final concentration of DMSO in cell culture wells never exceeded 0.25% (v/v). The FDA-approved anticancer drug set is available from the Developmental Therapeutics Program at https://dtp.cancer.gov/organization/dscb/obtaining/available_plates.htm. All drugs and investigational agents were tested over a range starting from a high concentration at or near the clinical Cmax and decreasing in half-log increments. If the clinical Cmax for an agent had not been determined, the highest concentration tested was 10 microM.
Cell Lines. The patient-derived cancer cell (PDC) lines: 292921-168-R-J2-PDC, K24384-001-R-PDC, and 521955-158-R2-J5-PDC pancreatic carcinomas, 556581-035-R-J1 ovarian carcinoma, 324938-238-R-J1-PDC, 855422-203-R-J1-PDC and 883617-216-R-J1-PDC urothelial bladder carcinomas, 743489-274-T-PDC renal cell carcinoma, 138582-R-J1 Merkel cell tumor, K60290-347-R-J1 and K57222-313-R-J1-PDC glioblastomas, 653999-131-R-J2-PDC, LG0703-F948-PDC, and 349418-098-R-PDC non-small cell lung carcinomas, 885512-296-R-J2-PDC, 171881-019-R-J1-PDC breast carcinomas and 186277-243-T-J2-PDC and 233499-124-R-J2-PDC colon carcinomas were obtained from the NCI Patient-Derived Models Repository (PDMR, https://pdmr.cancer.gov). The established cell lines NCI/ADR-RES (RRID:CVCL_14520 and OVCAR-5 (RRID:CVCL_1628) ovarian carcinomas, 786-O (RRID:CVCL_1051) and A498 (RRID:CVCL_A498) renal cell carcinoma, NCI-H211 (ATCC, cat. CRL-5824; RRID:CVCL_1529), NCI-H196 (ATCC, cat. CRL-5823, RRID:CVCL_1509), SW 1271 (ATCC, cat. CRL-2177, RRID:CVCL_1716) and NCI-H1876 (ATCC, cat. CRL-5902, RRID:CVCL_1503) small cell lung carcinomas, MDA-MB-231 (RRID:CVCL_0062) and MDA-MB-468 (RRID:CVCL_0419)breast carcinomas (10-12). Pooled donor human umbilical vein endothelial cells (HUVEC, Lonza, cat. CC-2519) and human mesenchymal stem cells (hMSC, Lonza, cat. PT-2501) were purchased from Lonza (Walkersville, MD).
Cell Culture. All cells were maintained in an incubator at 37 degrees C and 5% CO2 with 95% humidity. The PDC lines were cultured according to standard operating procedures established by the NCI PDMR (https://pdmr.cancer.gov). Briefly all PDCs were thawed and cultured in Matrigel-coated flasks prepared with a working solution of 1X Ham's F-12 nutrient mix, without supplementation (Invitrogen, Waltham, MA, cat. 11765054), 100 U/mL penicillin-streptomycin (Invitrogen, cat. 15140122), and 2.5% Matrigel (Corning Inc., Corning, NY, cat. 354248) for the first three passages. […]

[1] = curve of first compound, second compound 0.1 µM
[2] = curve of first compound, second compound 0.316 µM
[3] = curve of first compound, second compound 1 µM
[4] = curve of first compound, second compound 3.16 µM
[5] = curve of first compound, second compound 10 µM
[6] = second compound 0.1 µM, first compound 0.00316 µM
[7] = second compound 0.1 µM, first compound 0.01 µM
[8] = second compound 0.1 µM, first compound 0.0316 µM
[9] = second compound 0.1 µM, first compound 0.1 µM
[10] = second compound 0.316 µM, first compound 0.00316 µM
[11] = second compound 0.316 µM, first compound 0.01 µM
[12] = second compound 0.316 µM, first compound 0.0316 µM
[13] = second compound 0.316 µM, first compound 0.1 µM
[14] = second compound 1 µM, first compound 0.00316 µM
[15] = second compound 1 µM, first compound 0.01 µM
[16] = second compound 1 µM, first compound 0.0316 µM
[17] = second compound 1 µM, first compound 0.1 µM
[18] = second compound 3.16 µM, first compound 0.00316 µM
[19] = second compound 3.16 µM, first compound 0.01 µM
[20] = second compound 3.16 µM, first compound 0.0316 µM
[21] = second compound 3.16 µM, first compound 0.1 µM
[22] = second compound 10 µM, first compound 0.00316 µM
[23] = second compound 10 µM, first compound 0.01 µM
[24] = second compound 10 µM, first compound 0.0316 µM
[25] = second compound 10 µM, first compound 0.1 µM

- pIC50 (curve of compound): < 5.00
SMILES: O=C(c1cc(Cc2n[nH]c(=O)c3ccccc23)ccc1F)N1CCN(C(=O)C2CC2)CC1
- viability, T/C (compound 0.0316 µM): 103%
- viability, T/C (compound 0.1 µM): 103%
- viability, T/C (compound 0.316 µM): 104% and 103%
- viability, T/C (compound 1 µM): 96.8% and 102%
- viability, T/C (compound 3.16 µM): 85% and 97%
- viability, T/C (compound 10 µM): 61.8% and 74.5%

SMILES: O=C(C=Cn1cnc(-c2cc(C(F)(F)F)cc(C(F)(F)F)c2)n1)NNc1cnccn1 + NC1CC1c1ccc(-c2cccc(O)c2)cc1
- pIC50 [1]: 7.42
- pIC50 [2]: 7.46
- pIC50 [3]: 7.40
- pIC50 [4]: 7.43
- pIC50 [5]: 7.45
- viability, T/C [6]: 92.5%
- viability, T/C [7]: 72.2%
- viability, T/C [8]: 51.1%
- viability, T/C [9]: 39.1%
- viability, T/C (second compound 0.1 µM, first compound 0.316 µM): 28.9%
- viability, T/C (second compound 0.1 µM, first compound 1 µM): 25.2%
- viability, T/C [10]: 100%
- viability, T/C [11]: 72.5%
- viability, T/C [12]: 51.5%
- viability, T/C [13]: 36.7%
- viability, T/C (second compound 0.316 µM, first compound 0.316 µM): 29.9%
- viability, T/C (second compound 0.316 µM, first compound 1 µM): 26.2%
- viability, T/C [14]: 95.7%
- viability, T/C [15]: 71.3%
- viability, T/C [16]: 53.4%
- viability, T/C [17]: 37.7%
- viability, T/C (second compound 1 µM, first compound 0.316 µM): 31.2%
- viability, T/C (second compound 1 µM, first compound 1 µM): 22.7%
- viability, T/C [18]: 99.4%
- viability, T/C [19]: 73.5%
- viability, T/C [20]: 52.4%
- viability, T/C [21]: 38.1%
- viability, T/C (second compound 3.16 µM, first compound 0.316 µM): 29.1%
- viability, T/C (second compound 3.16 µM, first compound 1 µM): 26.3%
- viability, T/C [22]: 108%
- viability, T/C [23]: 67.8%
- viability, T/C [24]: 55%
- viability, T/C [25]: 39.4%
- viability, T/C (second compound 10 µM, first compound 0.316 µM): 29.7%
- viability, T/C (second compound 10 µM, first compound 1 µM): 25.4%

SMILES: CCc1c2c(nc3ccc(O)cc13)-c1cc3c(c(=O)n1C2)COC(=O)[C@]3(O)CC + NC1CCC(NC2CC2c2ccccc2)CC1
- pIC50 [1]: > 9.02
- pIC50 [2]: > 9.02
- pIC50 [3]: > 9.02
- pIC50 [4]: > 9.02
- pIC50 [5]: > 9.02
- viability, T/C (second compound 0.1 µM, first compound 0.000949 µM): 5.59%
- viability, T/C (second compound 0.1 µM, first compound 0.003 µM): 3.78%
- viability, T/C (second compound 0.1 µM, first compound 0.00949 µM): 4.66%
- viability, T/C (second compound 0.1 µM, first compound 0.03 µM): 5.87%
- viability, T/C (second compound 0.1 µM, first compound 0.0949 µM): 7.32%
- viability, T/C (second compound 0.1 µM, first compound 0.3 µM): 5.08%
- viability, T/C (second compound 0.316 µM, first compound 0.000949 µM): 4.71%
- viability, T/C (second compound 0.316 µM, first compound 0.003 µM): 5.02%
- viability, T/C (second compound 0.316 µM, first compound 0.00949 µM): 5.44%
- viability, T/C (second compound 0.316 µM, first compound 0.03 µM): 5.35%
- viability, T/C (second compound 0.316 µM, first compound 0.0949 µM): 6.11%
- viability, T/C (second compound 0.316 µM, first compound 0.3 µM): 6.29%
- viability, T/C (second compound 1 µM, first compound 0.000949 µM): 4.87%
- viability, T/C (second compound 1 µM, first compound 0.003 µM): 4.67%
- viability, T/C (second compound 1 µM, first compound 0.00949 µM): 4.31%
- viability, T/C (second compound 1 µM, first compound 0.03 µM): 6.32%
- viability, T/C (second compound 1 µM, first compound 0.0949 µM): 7.36%
- viability, T/C (second compound 1 µM, first compound 0.3 µM): 5.93%
- viability, T/C (second compound 3.16 µM, first compound 0.000949 µM): 4.72%
- viability, T/C (second compound 3.16 µM, first compound 0.003 µM): 4.8%
- viability, T/C (second compound 3.16 µM, first compound 0.00949 µM): 5.76%
- viability, T/C (second compound 3.16 µM, first compound 0.03 µM): 6.79%
- viability, T/C (second compound 3.16 µM, first compound 0.0949 µM): 7.9%
- viability, T/C (second compound 3.16 µM, first compound 0.3 µM): 6.54%
- viability, T/C (second compound 10 µM, first compound 0.000949 µM): 3.83%
- viability, T/C (second compound 10 µM, first compound 0.003 µM): 4.29%
- viability, T/C (second compound 10 µM, first compound 0.00949 µM): 6.51%
- viability, T/C (second compound 10 µM, first compound 0.03 µM): 9.43%
- viability, T/C (second compound 10 µM, first compound 0.0949 µM): 10.1%
- viability, T/C (second compound 10 µM, first compound 0.3 µM): 7.07%

SMILES: CC(C)CC(NC(=O)CNC(=O)c1cc(Cl)ccc1Cl)B1OC(=O)CC(CC(=O)O)(C(=O)O)O1 (configuration not stated) + NC1CCC(NC2CC2c2ccccc2)CC1
- pIC50 [1]: 7.89
- pIC50 [2]: 7.97
- pIC50 [3]: 7.92
- pIC50 [4]: 8.02
- pIC50 [5]: 7.99
- viability, T/C (second compound 0.1 µM, first compound 0.000316 µM): 127%
- viability, T/C (second compound 0.1 µM, first compound 0.001 µM): 123%
- viability, T/C [6]: 110%
- viability, T/C [7]: 52.4%
- viability, T/C [8]: 32.4%
- viability, T/C [9]: 9.25%
- viability, T/C (second compound 0.316 µM, first compound 0.000316 µM): 129%
- viability, T/C (second compound 0.316 µM, first compound 0.001 µM): 130%
- viability, T/C [10]: 121%
- viability, T/C [11]: 51.6%
- viability, T/C [12]: 30.7%
- viability, T/C [13]: 8.11%
- viability, T/C (second compound 1 µM, first compound 0.000316 µM): 113%
- viability, T/C (second compound 1 µM, first compound 0.001 µM): 128%
- viability, T/C [14]: 112%
- viability, T/C [15]: 52.3%
- viability, T/C [16]: 34.1%
- viability, T/C [17]: 10%
- viability, T/C (second compound 3.16 µM, first compound 0.000316 µM): 109%
- viability, T/C (second compound 3.16 µM, first compound 0.001 µM): 112%
- viability, T/C [18]: 107%
- viability, T/C [19]: 46.7%
- viability, T/C [20]: 29.5%
- viability, T/C [21]: 9.53%
- viability, T/C (second compound 10 µM, first compound 0.000316 µM): 96.8%
- viability, T/C (second compound 10 µM, first compound 0.001 µM): 91.4%
- viability, T/C [22]: 82.1%
- viability, T/C [23]: 50.1%
- viability, T/C [24]: 19.7%
- viability, T/C [25]: 7.29%
